{"source": "patent US4582821A", "about": "“Inhibition of cyclic nucleotide independent protein kinases” (E. I. Du Pont de Nemours and Company, priority 1983, dated 1986)", "key": {"pp60^src": {"system": "pp60^src", "assay": "Immune complex phosphorylation by pp60src immunoprecipitates of RSV-transformed cells", "type": "biochemical, Rous sarcoma virus (RSV)", "details": "250 nmoles per mg protein", "experimental": "(§1) In this experiment, Boc-LeuCH2 Br was tested as an inhibitor of pp60^src and p130^fps, the tyrosine-specific protein kinases encoded by the transforming genes of RSV and Fujinami sarcoma virus, respectively.\n(§2) These viral gene products were partially purified by preparation of immune complexes substantially according to the technique described by Collett et al., Proc. Nat. Acad. Sci. USA 75:2021 (1978). In this procedure, immunoprecipitates are prepared by incubation of extracts of virus-transformed cells with tumor-bearing rabbit serum (TBR) and Staphylococcus protein A suspension (for RSV-transformed cells) or anti-gag serum and Staphylococcus protein A suspension (for FSV-transformed cells).\n(§3) Assay mixtures contained, in a final volume of 70 μL, 100 μg of immune complex protein, 20 mM Hepes, pH 7.4, and 1 mM MnCl2. Phosphorylation was initiated by addition of 1 μM (4 μCi) [γ-^32 P] ATP. After 10 minutes at about 23°, reactions were terminated by pipetting 20 μL aliquots of assay mixture onto 2×2 cm squares of Whatman 3 MM filter paper, which were immediately suspended in 10% TCA/10 mM sodium pyrophosphate. Test mixtures contained 250 nmoles Boc-LeuCH2 Br per mg protein. Controls for the immunoprecipitation procedure were prepared by immunoprecipitating transformed cell extracts with normal serum. Values in parentheses represent specific phosphorylation induced by virus-transformed cells."}, "lymphoma cell line YAC-1": {"system": "lymphoma cell line YAC-1", "assay": "Tumor cell line growth inhibition, YAC-1", "type": "cell-based", "experimental": "(§4) In this series of experiments, the tumor cell growth inhibitory capacity of various peptide halomethyl ketones was tested against lymphoma cell lines YAC-1 and MOLT-4, and against an erythroleukemia cell line, K-562. The lymphoma cell line YAC-1 is described by Kiessling, et al., Eur. J. Immunol. 5:112 (1975), and MOLT-4 is described by Minowada, et al., J. Natl. Cancer Inst. 49:891 (1972) and Nilsson, et al., Int. J. Cancer 15:321 (1975). The erythroleukemia cell line K-562 is described by Lozzio, et al., Leuk. Res. 3:363 (1979). In these experiments, cells were grown on standard media as 10 mL suspension cultures. Initial cell density was 10^5 cells/mL. At day 0, test compounds were introduced in ethanol; control cultures received an equal volume of ethanol. Cells were counted at the times indicated."}, "[1]": {"system": "lymphoma cell line MOLT-4", "assay": "Tumor cell line growth inhibition, MOLT-4", "type": "cell-based", "experimental": "as §4"}, "p130^fps [2]": {"target": "T1, p130^fps (UniProt P00530+P03323)", "T1 construct": "anti-gag serum and Staphylococcus protein A suspension (for FSV-transformed cells); viral gag-derived N-terminal portion (natural gag-fps fusion); expressed in transfected cells; immune complex with anti-gag serum and Staphylococcus protein A", "assay": "Immune complex phosphorylation by p130fps immunoprecipitates of FSV-transformed cells", "type": "biochemical, Fujinami sarcoma virus (FSV)", "details": "for Activity (cpm), FSV: anti-gag immunoprecipitates, no inhibitor 27036; for Activity (cpm), Control: extracts immunoprecipitated with normal serum, no inhibitor 2624", "experimental": "as §1, §2\nas §3, with “Test mixtures contained 250 nmoles Boc-LeuCH2 Br per mg protein.” left out\n(§5) In a related experiment, the capacity of Boc-LeuCH2 Br to inhibit phosphorylation of casein by p130^fps was determined. These tests were conducted substantially as described above, except 1 mg/mL casein was added to assay mixtures as a substrate, and reactions were terminated by addition of 2.5 mM unlabeled ATP and immediate cooling to 0°. Phosphorylated casein was separated from immunoprecipitate suspensions by centrifugation at 3,000 xg for 3 minutes. The resulting pellets were resuspended in 70 μL of 10 mM Hepes, pH 7.5, and 20 μL aliquots were pipetted onto filter paper squares as previously described.\nThis experiment was conducted substantially according to the procedures described in Example 17, above. In Table 5, \"FSV\" refers to immunoprecipitates of FSV-transformed cell extracts prepared by addition of anti-gag serum; controls were extracts immunoprecipitated with normal serum."}, "p130^fps [3]": {"target": "T1, p130^fps", "assay": "Casein phosphorylation by p130fps immunoprecipitates", "type": "biochemical, Fujinami sarcoma virus (FSV)", "details": "for Casein Phosphorylation: 1 mg/mL casein", "experimental": "as §5, with “described. […]” for “described.”"}}, "data": [{"smiles": "CC(C)CC(NC(=O)OC(C)(C)C)C(=O)CBr", "note": "(stereo not shown) [Boc-LeuCH2 Br]", "values": [{"measurement": "Immune Complex Phosphorylation", "setting": "pp60^src; pp60 + control serum, no inhibitor 7872", "result": 7516, "unit": "cpm"}, {"measurement": "Immune Complex Phosphorylation, specific phosphorylation (in parentheses)", "setting": "pp60^src; pp60src + TBR serum, no inhibitor 5112", "result": 3202, "unit": "cpm"}, {"measurement": "Immune Complex Phosphorylation", "setting": "pp60^src; pp60src + TBR serum, no inhibitor 12984", "result": 10718, "unit": "cpm"}, {"measurement": "% Growth Relative to Control Cultures", "setting": "lymphoma cell line YAC-1; 0.4 μg/mL, day 4", "result": 97, "unit": "%"}, {"measurement": "% Growth Relative to Control Cultures", "setting": "lymphoma cell line YAC-1; 2.0 μg/mL, day 1", "result": 42, "unit": "%"}, {"measurement": "% Growth Relative to Control Cultures", "setting": "lymphoma cell line YAC-1; 2.0 μg/mL, day 2", "result": 31, "unit": "%"}, {"measurement": "% Growth Relative to Control Cultures", "setting": "lymphoma cell line YAC-1; 2.0 μg/mL, day 3", "result": 28, "unit": "%"}, {"measurement": "% Growth Relative to Control Cultures", "setting": "lymphoma cell line YAC-1; 2.0 μg/mL, day 4", "result": 12, "unit": "%"}, {"measurement": "% Growth Relative to Control Cultures", "setting": "lymphoma cell line YAC-1; 2.0 μg/mL, day 7", "result": 28, "unit": "%"}, {"measurement": "% Growth Relative to Control Cultures", "setting": "lymphoma cell line YAC-1; 10. μg/mL, day 1", "result": 67, "unit": "%"}, {"measurement": "% Growth Relative to Control Cultures", "setting": "lymphoma cell line YAC-1; 10. μg/mL, day 2", "result": 32, "unit": "%"}, {"measurement": "% Growth Relative to Control Cultures", "setting": "lymphoma cell line YAC-1; 10. μg/mL, day 3", "result": 22, "unit": "%"}, {"measurement": "% Growth Relative to Control Cultures", "setting": "lymphoma cell line YAC-1; 10. μg/mL, day 4", "result": 13, "unit": "%"}, {"measurement": "% Growth Relative to Control Cultures", "setting": "lymphoma cell line YAC-1; 10. μg/mL, day 7", "result": 16, "unit": "%"}, {"measurement": "% Growth Relative to Control Cultures", "setting": "[1]; 0.4 μg/mL, day 2", "result": 66, "unit": "%"}, {"measurement": "% Growth Relative to Control Cultures", "setting": "[1]; 0.4 μg/mL, day 3", "result": 84, "unit": "%"}, {"measurement": "% Growth Relative to Control Cultures", "setting": "[1]; 0.4 μg/mL, day 4", "result": 67, "unit": "%"}, {"measurement": "% Growth Relative to Control Cultures", "setting": "[1]; 2.0 μg/mL, day 2", "result": 29, "unit": "%"}, {"measurement": "% Growth Relative to Control Cultures", "setting": "[1]; 2.0 μg/mL, day 3", "result": 31, "unit": "%"}, {"measurement": "% Growth Relative to Control Cultures", "setting": "[1]; 2.0 μg/mL, day 4", "result": 21, "unit": "%"}, {"measurement": "% Growth Relative to Control Cultures", "setting": "[1]; 2.0 μg/mL, day 7", "result": 74, "unit": "%"}, {"measurement": "% Growth Relative to Control Cultures", "setting": "[1]; 10. μg/mL, day 1", "result": 49, "unit": "%"}, {"measurement": "% Growth Relative to Control Cultures", "setting": "[1]; 10. μg/mL, day 2", "result": 16, "unit": "%"}, {"measurement": "% Growth Relative to Control Cultures", "setting": "[1]; 10. μg/mL, day 3", "result": 14, "unit": "%"}, {"measurement": "% Growth Relative to Control Cultures", "setting": "[1]; 10. μg/mL, day 4", "result": 9, "unit": "%"}, {"measurement": "% Growth Relative to Control Cultures", "setting": "[1]; 10. μg/mL, day 7", "result": 14, "unit": "%"}, {"measurement": "% inhibition", "setting": "p130^fps [2]; 250 nmoles/mg protein", "result": 48, "unit": "%"}, {"measurement": "Activity (cpm), FSV", "setting": "p130^fps [2]; 250 nmoles/mg protein", "result": 13932, "unit": "cpm"}, {"measurement": "Activity (cpm), Control", "setting": "p130^fps [2]; 250 nmoles/mg protein", "result": 2370, "unit": "cpm"}, {"measurement": "% inhibition", "setting": "p130^fps [2]; 500 nmoles/mg protein", "result": 69, "unit": "%"}, {"measurement": "Activity (cpm), FSV", "setting": "p130^fps [2]; 500 nmoles/mg protein", "result": 8344, "unit": "cpm"}, {"measurement": "Activity (cpm), Control", "setting": "p130^fps [2]; 500 nmoles/mg protein", "result": 2180, "unit": "cpm"}, {"measurement": "Immune Complex Phosphorylation, specific phosphorylation (in parentheses)", "setting": "p130^fps [2]; p130fps + anti-gag serum, 250 nmoles per mg protein, no inhibitor 20104", "result": 6324, "unit": "cpm"}, {"measurement": "Immune Complex Phosphorylation", "setting": "p130^fps [2]; p130fps + anti-gag serum, 250 nmoles per mg protein, no inhibitor 29244", "result": 15222, "unit": "cpm"}, {"measurement": "Immune Complex Phosphorylation", "setting": "p130^fps [2]; p130fps + control serum, 250 nmoles per mg protein, no inhibitor 9140", "result": 8898, "unit": "cpm"}, {"measurement": "Immune Complex Phosphorylation", "setting": "p130^fps [2]; related experiment with 1 mg/mL casein, p130fps + anti-gag serum, no inhibitor 7663", "result": 1656, "unit": "cpm"}, {"measurement": "Immune Complex Phosphorylation", "setting": "p130^fps [2]; related experiment with 1 mg/mL casein, p130fps + control serum, no inhibitor 1184", "result": 1286, "unit": "cpm"}, {"measurement": "Casein Phosphorylation", "setting": "p130^fps [3]; p130fps + anti-gag serum, no inhibitor 4442", "result": 618, "unit": "cpm"}, {"measurement": "Casein Phosphorylation", "setting": "p130^fps [3]; p130fps + control serum, no inhibitor 326", "result": 226, "unit": "cpm"}, {"measurement": "Percent Inhibition", "setting": "p130^fps [3]; casein-phosphorylating activity of p130fps, concentration not given", "result": 63, "unit": "%"}]}]}
